# Results from paper PMC11882969 (Nature Communications, 2025).
# Where “and” joins values, the source holds several entries; their conditions need not be identical. Equal entries are not always repeated.
# Columns and labels:
# CB1 (rCB1) = CB1 (rCB1) (Rattus norvegicus, UniProt P20272); test: Radioligand competition binding, [3H]-CP-55,940, rat brain membranes
# hCB1 = hCB1 (Homo sapiens, UniProt P21554); test: bioSensAll ebBRET signaling profiling, hCB1; assay type: cell-based; parameters: host or cells: HEK293SL cells, transient PEI transfection; conditions: for Gi1 hCB1 response: Gi1 biosensor; for Gi1 hCB1 / GoB hCB1: single replicate values, FigS6a
# Chain of hCB1 (P21554 whole entry): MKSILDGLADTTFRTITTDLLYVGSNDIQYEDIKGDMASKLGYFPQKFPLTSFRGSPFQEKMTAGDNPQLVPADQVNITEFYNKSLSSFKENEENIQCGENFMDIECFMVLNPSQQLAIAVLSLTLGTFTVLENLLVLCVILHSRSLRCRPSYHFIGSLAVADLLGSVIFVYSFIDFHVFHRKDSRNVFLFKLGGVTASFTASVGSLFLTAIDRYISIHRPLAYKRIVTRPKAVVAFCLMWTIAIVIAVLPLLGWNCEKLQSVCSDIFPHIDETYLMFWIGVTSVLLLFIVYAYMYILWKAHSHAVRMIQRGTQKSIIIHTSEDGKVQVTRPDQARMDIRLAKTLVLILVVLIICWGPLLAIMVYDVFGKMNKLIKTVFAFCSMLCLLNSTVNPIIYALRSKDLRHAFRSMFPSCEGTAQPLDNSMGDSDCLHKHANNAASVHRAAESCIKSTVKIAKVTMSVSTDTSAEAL
# Chain of CB1 (rCB1) (P20272 whole entry): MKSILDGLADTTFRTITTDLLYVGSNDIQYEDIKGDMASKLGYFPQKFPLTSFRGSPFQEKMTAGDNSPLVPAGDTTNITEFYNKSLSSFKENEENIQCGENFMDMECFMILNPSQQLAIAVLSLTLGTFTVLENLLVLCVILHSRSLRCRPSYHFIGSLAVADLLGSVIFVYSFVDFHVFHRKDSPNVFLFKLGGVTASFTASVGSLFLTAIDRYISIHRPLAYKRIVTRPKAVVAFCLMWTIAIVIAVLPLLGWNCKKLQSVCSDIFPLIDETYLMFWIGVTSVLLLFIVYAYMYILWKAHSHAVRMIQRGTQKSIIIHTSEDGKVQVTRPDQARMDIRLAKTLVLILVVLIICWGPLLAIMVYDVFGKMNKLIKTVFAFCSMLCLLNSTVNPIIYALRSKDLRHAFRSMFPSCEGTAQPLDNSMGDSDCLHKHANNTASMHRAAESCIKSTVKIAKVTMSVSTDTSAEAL
smiles,measurement,setting,value
Cc1cc(C(=O)N(C)C(c2ccccc2)c2ccco2)nn1-c1cccc(C(F)(F)F)c1 (centres unmarked) [‘1082],pKi [95% CI],CB1 (rCB1); rCB1,6.1 [5.8 – 6.3]
same,Ki,"CB1 (rCB1); read-out: Ki [95% CI], rCB1, [3H]-CP-55,940",850 nM
same,Gi1 hCB1 response,hCB1; Log [Compound] (M) -4.22186,-35.0608
same,Gi1 hCB1 response,hCB1; Log [Compound] (M) -4.63927,-33.606
same,Gi1 hCB1 response,hCB1; Log [Compound] (M) -5.05788,18.2518
same,Gi1 hCB1 response,hCB1; Log [Compound] (M) -5.47381,-3.66
same,Gi1 hCB1 response,hCB1; Log [Compound] (M) -5.89285,5.159
same,Gi1 hCB1 response,hCB1; Log [Compound] (M) -6.31878,-15.9695
same,Gi1 hCB1 response,hCB1; Log [Compound] (M) -6.72585,12.7459
same,Gi1 hCB1 response,hCB1; Log [Compound] (M) -7.14267,12.0521
same,Gi1 hCB1 response,hCB1; Log [Compound] (M) -7.55284,14.8945
same,Gi1 hCB1 response,hCB1; Log [Compound] (M) -8,-25.6382
same,Gi1 hCB1 response,hCB1; Log [Compound] (M) -8.22186,0.1228
same,Gi1 hCB1 response,hCB1; Log [Compound] (M) -8.39794,-3.727
same,Gi1 hCB1 response,hCB1; Log [Compound] (M) -8.68787,-1.824
same,Gi1 hCB1 response,hCB1; Log [Compound] (M) -9.15521,3.279
same,Gi1 hCB1 response,hCB1; Log [Compound] (M) -9.61989,-3.167
same,Gi1 hCB1 response,hCB1; Log [Compound] (M) -10.0969,-2.16
same,Gi1 hCB1 response,hCB1; Log [Compound] (M) -10.5529,5.92
same,Gi1 hCB1 response,hCB1; Log [Compound] (M) -11.0177,-6.256
same,Gi1 hCB1 response,hCB1; Log [Compound] (M) -11.4949,-0.9291
same,Gi1 hCB1 response,hCB1; Log [Compound] (M) -11.9208,-13.4627
same,Gi1 hCB1 response,hCB1; Log [Compound] (M) -12.3979,-16.5961
same,Gi1 hCB1 response,hCB1; Log [Compound] (M) -12.8861,7.553
same,Gi1 hCB1 response,"hCB1; Log [Compound] (M) -13, individual replicate values",-19.5729 and -62.4781
same,Gi1 hCB1,hCB1; Log [Compound] (M) -4.22186,-9.361
same,GoB hCB1,hCB1; Log [Compound] (M) -4.22186,-31.4993
same,Gi1 hCB1,hCB1; Log [Compound] (M) -4.63927,-10.6872
same,GoB hCB1,hCB1; Log [Compound] (M) -4.63927,-34.2867
same,Gi1 hCB1,hCB1; Log [Compound] (M) -5.05788,-11.9051
same,GoB hCB1,hCB1; Log [Compound] (M) -5.05788,-28.1184
same,Gi1 hCB1,hCB1; Log [Compound] (M) -5.47381,-11.4426
same,GoB hCB1,hCB1; Log [Compound] (M) -5.47381,-23.1191
same,Gi1 hCB1,hCB1; Log [Compound] (M) -5.89285,-8.945
same,GoB hCB1,hCB1; Log [Compound] (M) -5.89285,-20.2417
same,Gi1 hCB1,hCB1; Log [Compound] (M) -6.31878,-6.247
same,GoB hCB1,hCB1; Log [Compound] (M) -6.31878,-13.1203
same,Gi1 hCB1,hCB1; Log [Compound] (M) -6.72585,-1.113
same,GoB hCB1,hCB1; Log [Compound] (M) -6.72585,-7.186
same,Gi1 hCB1,hCB1; Log [Compound] (M) -7.14267,-0.5276
same,GoB hCB1,hCB1; Log [Compound] (M) -7.14267,-1.323
same,Gi1 hCB1,hCB1; Log [Compound] (M) -7.55284,1.23
same,GoB hCB1,hCB1; Log [Compound] (M) -7.55284,0.2953
same,Gi1 hCB1,hCB1; Log [Compound] (M) -8,1.677
same,GoB hCB1,hCB1; Log [Compound] (M) -8,-4.362
same,Gi1 hCB1,hCB1; Log [Compound] (M) -8.22186,1.6461
same,GoB hCB1,hCB1; Log [Compound] (M) -8.22186,-2.654
same,Gi1 hCB1,hCB1; Log [Compound] (M) -8.39794,0.5515
same,GoB hCB1,hCB1; Log [Compound] (M) -8.39794,-2.906
same,Gi1 hCB1,hCB1; Log [Compound] (M) -8.68787,1.245
same,GoB hCB1,hCB1; Log [Compound] (M) -8.68787,-4.668
same,Gi1 hCB1,hCB1; Log [Compound] (M) -9.15521,1.045
same,GoB hCB1,hCB1; Log [Compound] (M) -9.15521,-5.747
same,Gi1 hCB1,hCB1; Log [Compound] (M) -9.61989,-0.04972
same,GoB hCB1,hCB1; Log [Compound] (M) -9.61989,-2.816
same,Gi1 hCB1,hCB1; Log [Compound] (M) -10.0969,2.864
same,GoB hCB1,hCB1; Log [Compound] (M) -10.0969,-1.485
same,Gi1 hCB1,hCB1; Log [Compound] (M) -10.5529,1.384
same,GoB hCB1,hCB1; Log [Compound] (M) -10.5529,-2.978
same,Gi1 hCB1,hCB1; Log [Compound] (M) -11.0177,-0.3581
same,GoB hCB1,hCB1; Log [Compound] (M) -11.0177,1.41
same,Gi1 hCB1,hCB1; Log [Compound] (M) -11.4949,1.415
same,GoB hCB1,hCB1; Log [Compound] (M) -11.4949,-0.7478
same,Gi1 hCB1,hCB1; Log [Compound] (M) -11.9208,2.802
same,GoB hCB1,hCB1; Log [Compound] (M) -11.9208,0.3312
same,Gi1 hCB1,hCB1; Log [Compound] (M) -12.3979,0.1044
same,GoB hCB1,hCB1; Log [Compound] (M) -12.3979,-0.9456
same,Gi1 hCB1,hCB1; Log [Compound] (M) -12.8861,-0.6818
same,GoB hCB1,hCB1; Log [Compound] (M) -12.8861,1.626
same,Gi1 hCB1,hCB1; Log [Compound] (M) -13,2.001 and 0.07361
same,GoB hCB1,hCB1; Log [Compound] (M) -13,1.176 and -0.1363
